Reference: patent publication US20230149383A1, “QUINOLINE COMPOUNDS FOR TREATING LUNG, LIVER, AND KIDNEY DISEASES, DISORDERS, OR CONDITIONS” (Aldeyra Therapeutics, Inc., priority 2020, published 2023)

Test system: human precision cut liver slices (PCLS)
Assay: Alcoholic liver injury model in precision-cut liver slices (PCLS)
Format: cell-based
Source text: Alcohol abuse results in liver injury, including accumulation of RASP and an increase in inflammation. It is known to cause abnormalities in liver structure and function, including fatty liver, apoptosis, necrosis, fibrosis, and cirrhosis. In order to investigate the utility of the quinoline compounds described herein for reduction of RASP and/or treating liver and associated inflammatory disorders, we employed a known in vitro culture model that employs precision-cut liver slices (PCLS) to measure alcohol-induced liver injury. For this experiment, we used a liver sample donated from a […] with fibrosis. This experiment may also be performed on rat PCLS (procedure provided below). The model is described, for example in Klassen, L. W. et al., Biochemical Pharmacology 76 (2008), 426-436. In this model, PCLS retains excellent viability as determined by lactate dehydrogenase and adenosine triphosphate (ATP) levels over a 96-h period of incubation. The major enzymes of ethanol detoxification (alcohol dehydrogenase, aldehyde dehydrogenase, and cytochrome P4502E1), remain active and PCLS readily metabolizes ethanol and produces acetaldehyde. […] These PCLS secrete albumin, and albumin secretion was decreased by ethanol treatment. All of these impairments are reversed following the addition of 4-methylpyrazole, which is an inhibitor of ethanol metabolism. Therefore, this model system appears to mimic the ethanol-induced changes in the liver that have been previously reported in human and animal studies, and appears to be a useful model for the study of alcoholic liver disease.
Materials and Methods. For human PCLS studies, slices were cut as described below and incubated with conditions below for 24, 48, or 72 hours. Media were changed daily. • Control Media • 25 mM Ethanol Media. • Control Media+10 μM compound I-1 (7 μl of the 5 mg/ml I-1 solution in 1.7 ml) • Ethanol Media+10 μM compound I-1
Incubation of slices with ethanol is performed as follows. Following pre-incubation with WE, slices are incubated with media only (control), media+25 mM ethanol (ethanol), media+25 mM ethanol+0.50 mM 4-methylpyrazole as an optional positive control (ethanol +4-MP), media+0.50 mM 4-methylpyrazole (control+4-MP), control media+test compound, or ethanol media+test compound. The addition of 4-MP may be used in these studies as it is a general inhibitor of ethanol metabolism. The slices are placed in the Dynamic Organ Culture incubator and cultured at 37 C for up to 96 h, and every 24 h the appropriate media is replenished. In order to determine the concentration of ethanol and acetaldehyde in the media, the supernatant is analyzed using headspace gas chromatography.
Viability assays are performed as follows. Slice viability is determined by measuring adenosine triphosphate (ATP) and lactate dehydrogenase (LDH) levels. For the ATP assay, slices are harvested at the appropriate times, placed into 70% ethanol/2 mM EDTA, flash frozen, and stored at −70 C until assayed. Samples are thawed on ice, sonicated, and diluted in 0.1 M Tris-HCl/2 mM EDTA prior to use in a standard ATP assay kit.
For LDH determination, supernatant is collected and frozen at −70 C. The slice is solubilized in WE containing 2% Triton X-100 and LDH determined using a cytotoxicity detection kit (LDH) (e.g., available from Roche Applied Science, Penzberg, Germany). The absorbance of the samples is measured at 490 nm. All protein concentrations from the slices are determined using a BCA protein assay kit. To calculate the % Cytotoxicity at subsequent 24 h time points, the LDH in the media is divided by the total LDH in the PCLS and multiplied by 100.
Triglyceride analysis is performed as follows. At indicated time points, supernatant is removed and slices are washed in PBS (pH 7.4). Slices are placed in PBS containing 0.5% Triton-X100, sonicated, and the equivalent of […] of protein assayed for triglycerides using the serum triglyceride kit. […]

With `CC(C)(O)c1nc2ccccc2cc1N` [I-1] the “overall effect on cellular stress and toxicity in response to ethanol” value was “acts as a chemoprotectant to reduce cellular stress and toxicity”, the triglyceride levels (10 μM I-1 + 25 mM ethanol, 24, 48, 72 h) was “significantly decreased” and the acetaldehyde levels (10 μM I-1, 24, 48, 72 h) was “appear to be decreased”. The ATP levels (10 μM I-1, 24 and 48 hours) was “remain constant”, the ATP levels (10 μM I-1, 72 hours) was “increase” and the “cytotoxicity (LDH) levels” value (ethanol treated + 10 μM I-1) was “continued to drop”.
